Experimental findings from patent US20260000600A1, “PHARMACEUTICAL COMPOSITION FOR PREVENTING OR TREATING INFLAMMATORY DISEASES COMPRISING PEGYLATED BILIRUBIN” (BILIX CO., LTD., priority 2022, published 2026) are described below.

Structures are written as SMILES.

The test system of test [1] is HDM-induced atopic dermatitis mouse model. The test is described as follows: HDM-induced atopic dermatitis mouse model (1), dose dependence. As to conditions: 0.1% Dexamethasone, 62.5 mg/animal. Type of test: in vivo, NC/Nga female mice. On the procedure: (§1) An HDM-induced atopic dermatitis mouse model was created by applying HDM antigen ointment to the back and ear skin of 6 to 10-week-old NC/Nga female mice a total of 7 times on Days 0, 7, 10, 14, 17, 21 and 24. […] Clinical symptoms were evaluated during the process of inducing atopic dermatitis, and skin tissues were secured after the survival test was completed for further analysis.
(§2) To quantify the clinical symptoms of atopic dermatitis, for four (4) clinical index items including 1) erythema/hemorrhage, 2) scarring/dryness, 3) edema and 4) excoriation/maceration (erosion), a clinical score was measured on a Likert scale out of 3. H&E staining was performed to observe histological changes in the skin for atopic dermatitis, while dihydroethidium (DHE) staining was performed to measure ROS in skin tissues. Further, in order to identify the mast cells and eosinophils infiltrated in the skin tissues, Toluidine blue staining and Congo red staining were performed, respectively. The results of the graph were expressed as mean±SEM. The statistical analysis was performed using the GraphPad program to confirm statistical significance with the Vehicle group through one-way ANOVA, followed by Dunnett's multiple comparison method (*p<0.05, **p<0.01, ***p<0.001, ****p<0.0001).

The test system of test [2] is DNFB-induced contact dermatitis mouse model. The test is described as follows: DNFB-induced contact dermatitis mouse model. It is filed as in vivo, C57BL/6 NC/Nga male mice. Particulars: 0.1% Dexamethasone, 62.5 mg/animal, topical daily; Vehicle 0.94±0.01. From the text: A DNFB-induced contact dermatitis mouse model was created using 6 to 10-week-old C57BL/6 NC/Nga male mice and Mouse 2, 4 Dinitrofluorobenzene (DNFB). On Days 0 and 1, 0.5% DNFB solution (acetone:olive oil=4:1) was applied to the back skin to sensitize them, and then on Day 7, 0.3% DNFB solution was applied to the ear skin to induce contact dermatitis. With respect to a normal group in which the DNFB solution was not applied (Normal group), as negative control groups, a group in which no additional substances were applied in the process of inducing contact dermatitis (No Treatment group) and a group in which excipients were applied to the skin (Vehicle group), and as a positive control group, a group in which the previously-approved drug Maxidex was applied (Dexamethasone group, 0.1% Dexamethasone, 62.5 mg/animal), the test substance Brixelle (30 mg/kg) was applied to the skin every day from Day 0, thus to evaluate its effectiveness. Clinical symptoms were evaluated during the process of inducing contact dermatitis, and skin tissues were secured after the survival test was completed for further analysis.
Ear thickness was measured to evaluate edema, a clinical symptom of contact dermatitis. […] The results of the graph were expressed as mean±SEM. […]

Test [3] relates to HDM-induced atopic dermatitis mouse model. Kind of test: HDM-induced atopic dermatitis mouse model (2), comparison with approved drugs. It is filed as in vivo, NC/Nga female mice. As to conditions: 0.1% Dexamethasone, 62.5 mg/animal. As to the method:
as §1
as §2, with “respectively. To measure IL-4 and IL-13, which are inflammatory mediators known to be highly related to atopic dermatitis, ELISA was performed on the skin tissues.” for “respectively.”

Test [4] relates to IMQ-induced psoriasis mouse model. The test is described as follows: IMQ-induced psoriasis mouse model. It is filed as in vivo, C57BL/6 male mouse. As to conditions: 0.05% Clobetasol propionate, 62.5 mg/animal, topical daily; Vehicle 10.50±0.47. An excerpt:
An IMQ-induced psoriasis mouse model was created by applying Aldara™ (imiquimod, IMQ) cream to the back skin of an 8-week-old C57BL/6 male mouse a total of 7 times from Day 0 to Day 6. With respect to a normal group in which IMQ cream was not applied (Normal group), as negative control groups, a group in which no additional substances were applied in the process of inducing psoriasis (No Treatment group) and a group in which excipients were applied to the skin (Vehicle group), and as a positive control group, a group in which the previously-approved drug Betabate was applied (Clobetasol propionate group, 0.05% Clobetasol propionate, 62.5 mg/animal), the test substance Brixelle (30 mg/kg) was applied to the skin every day from Day 0, thus to evaluate its effectiveness. Clinical symptoms were evaluated during the process of inducing psoriasis, and skin tissues were secured after the survival test was completed for further analysis.
To quantify the clinical symptoms of psoriasis, for three (3) clinical index items including 1) erythema (redness), 2) scaling and 3) skin thickness, a clinical score was measured on a scale out of 4 (modified psoriasis area and severity index, PASI). […] The results of the graph were expressed as mean±SEM. […]

Turning to `C[C@@H]1C[C@H]2[C@@H]3CCC4=CC(=O)C=C[C@]4(C)[C@@]3(F)[C@@H](O)C[C@]2(C)[C@@]1(O)C(=O)CO` [Dexamethasone], the “clinical score (atopic dermatitis)” value was determined as 4.90±0.76 in test [1] (topical daily from Day 7, Vehicle 9.44±0.77, mean±SEM) and 3.75±0.99 in test [3] (topical daily from Day 7, Vehicle 9.58±0.64). Besides, the “eosinophil infiltration (Congo red staining)” value in test [1] (Vehicle 35.50±1.37) is 18.88±1.64; in test [3] (Vehicle 40.06±5.95), 10.25±2.56. The “mast cell infiltration (Toluidine blue staining)” value is given as 27.38±3.19 in test [1] (Vehicle 52.69±2.19) and 20.69±5.25 in test [3] (Vehicle 56.81±1.99). Also, in test [2], the “thickness of the ear skin” value was found to be 0.67±0.02.

Consider `CCC(=O)O[C@]1(C(=O)CCl)[C@@H](C)C[C@H]2[C@@H]3CCC4=CC(=O)C=C[C@]4(C)[C@@]3(F)[C@@H](O)C[C@@]21C` [Clobetasol propionate], for which the “clinical score (modified PASI)” value in test [4] was 7.25±0.21.
